The NIST ThermoML archive (doi:10.1016/j.jct.2011.09.022)

Details: Liquid, Closed cell (Static) method

CC#N [acetonitrile]
Details | vapor or sublimation pressure [kPa]
278.72 K | 4.443
278.88 K | 4.539
278.98 K | 4.513
279.81 K | 4.732
280.27 K | 4.859
281.91 K | 5.339
283.17 K | 5.637
283.56 K | 5.838
283.81 K | 5.916
284.56 K | 6.102
285.7 K | 6.473
286.17 K | 6.59
286.61 K | 6.754
288.72 K | 7.498
288.8 K | 7.559
288.83 K | 7.594
289.39 K | 7.802
290.09 K | 8.032
290.6 K | 8.302
291.36 K | 8.598
292.48 K | 9.163
293.21 K | 9.408
293.92 K | 9.82
294.4 K | 10.03
295.33 K | 10.43
295.94 K | 10.77
296.44 K | 11.02
297.48 K | 11.6
298.3 K | 12.05
298.67 K | 12.17
299.42 K | 12.61
301.19 K | 13.61
302.14 K | 14.18
304.16 K | 15.57
305.01 K | 16.1
306.04 K | 16.96
306.9 K | 17.53
307.95 K | 18.22
309.92 K | 19.85
310.71 K | 20.49
311.79 K | 21.38
311.88 K | 21.55
312.81 K | 22.5
313.77 K | 23.42
314.79 K | 24.17
315.71 K | 25.1
315.79 K | 25.15
316.63 K | 26.11
317.72 K | 27.21
318.66 K | 28.27
319.69 K | 29.39
320.67 K | 30.52
321.65 K | 31.73
322.54 K | 32.95
322.56 K | 32.94
322.64 K | 33.19
323.64 K | 34.49
324.59 K | 35.65
325.58 K | 37

C1CCOC1 [tetrahydrofuran]
Details | vapor or sublimation pressure [kPa]
275.99 K | 7.099
276.53 K | 7.556
277.76 K | 7.839
278.19 K | 8.328
279.41 K | 8.614
279.86 K | 9.036
280.16 K | 8.932
281.95 K | 9.957
283.07 K | 10.55
283.15 K | 10.32
283.36 K | 10.9
284.88 K | 11.68
286.55 K | 12.44
288.5 K | 13.79
289 K | 14
289.66 K | 14.48
291.04 K | 15.65
292.31 K | 16.65
293.3 K | 17.43
296.05 K | 19.72
296.84 K | 20.37
297.09 K | 20.65
298.15 K | 21.5
298.72 K | 22.24
300.57 K | 23.84
301.73 K | 25.28
302.96 K | 26.62
303.23 K | 26.87
304.04 K | 27.79
305.35 K | 29.43
306.54 K | 30.77
308.07 K | 32.49
310.2 K | 35.55
310.86 K | 36.65
311.9 K | 38.54
313.12 K | 40.13
313.18 K | 40.09
315.86 K | 44.65
317.71 K | 47.86
319.58 K | 51.31
321.57 K | 55.34
323.59 K | 59.46
